Where two headings read alike, the source gives them in different places. Blank lines part the entries; values can stand above or below the compound they belong to.
Key:
HIV-1 protease = HIV-1 protease (Human immunodeficiency virus type 1 group M subtype B, UniProt P04585); assay: biochemical; format: biochemical
Procedure: IC50 values for enzyme inhibition are determined using HIV-1 and Amersham's HIV proteinase [^125 I]-scintillation proximity assay (SPA).
Amersham's HIV proteinase [^125 I]-SPA system is a commercial assay incorporating the scintillation proximity assay (SPA) principle available from Amersham International PLC, Bucks, England.
The SPA microspheres provided by Amersham have the substrate linked directly to the surface through a streptavidin-biotin link. The substrate is a 12 residue peptide designed specifically for this application utilizing current knowledge of known cleavage sites for the enzyme and analogue substrate studies. The sequence of the substrate is: [drawing 22]
The peptide is monoiodinated on the tyrosine residue and biotinylated through the epsilon-NH2 group on the lysine. It is linked to the SPA bead via a streptavidin-link. The beads are suspended in a buffer consisting of 5 mM DTT, 1 mM EDTA, 10% w/v glycerol, 0.05% W/v sodium azide, 0.01% v/v Triton X-100 in 25 mM sodium citrate buffer pH 5.5.
The enzyme cleaves at the Phe-Phe bond releasing the ^125 I fragment from the bead. This event causes the removal of detectable signal from the microsphere. […] The rate of reduction in signal is proportional to the activity of the enzyme. The obtained data is used to calculate the IC50 values found in Table 1.

[1] = system: HIV-1 strain IIIB in T lymphoid MT-2 cell lines; assay: inhibition of growth of HIV-1 strain IIIB in T lymphoid MT-2 cell lines (metabolic MTT dye); format: cell-based; details: Human immunodeficiency virus 1, IIIB, MT2, 120 h, 5 days; for inhibition at 0.01 µg/mL: 0.010 μg/ml, read-out: % Inhibition at concentration 0.010 μg/ml; for inhibition at 0.039 µg/mL: 0.039 μg/ml, read-out: % Inhibition at concentration 0.039 μg/ml; for inhibition at 0.156 µg/mL: 0.156 μg/ml, read-out: % Inhibition at concentration 0.156 μg/ml; for inhibition at 0.625 µg/mL: 0.625 μg/ml, read-out: % Inhibition at concentration 0.625 μg/ml; for inhibition at 2.5 µg/mL: 2.5 μg/ml, read-out: % Inhibition at concentration 2.5 μg/ml
Procedure: In Table 2, data is shown for the ability of these compounds to inhibit growth of HIV-1 strain IIIB in T lymphoid MT-2 cell lines. The cell line is challenged by free virons selected to result in 90-95% cell death (CPE) by day 5. The protease inhibitor compound is then added in the stated concentration. After 5 days, the surviving cells are measured using metabolic MTT dye.

[2] = Activity of Compounds as Enzyme Inhibitor

Compound: CC[C@H](C)[C@H](NC(=O)[C@H](Cc1ccccc1)CC(O)(CO)CN1C[C@H]2CCCC[C@H]2C[C@H]1C(=O)NC(C)(C)C)C(=O)OC (relative stereo) [Example 30, 3S-[2(2S*),3alpha,4abeta,8abeta]]-N-[5-[3-[[(1,1-Dimethylethyl)amino]carbonyl]octahydro-2(1H)-isoquinolinyl]4-hydroxy-4-(hydroxymethyl)-1-oxo-2-(phenylmethyl)pentyl]-L-isoleucine methyl ester]
- IC50 (HIV-1 protease; [2]): 415 nM

Compound: CC[C@H](C)[C@H](NC(=O)[C@H](Cc1ccccc1)CC(O)(CO)CN1C[C@H]2CCCC[C@H]2C[C@H]1C(=O)NC(C)(C)C)C(=O)NCc1ccccn1 (stereo partly drawn) [Example 26, [3S-[2[gammaR*(and S*),gamma[alphaS*[1R*,1(R*)]]],3alpha,4abeta,8abeta]]-3-[[(1,1-Dimethylethyl)amino]carbonyl]octahydro-gamma-hydroxy-gamma-(hydroxymethyl)-N-[[2-methyl-1-[[(2-pyridinylmethyl)amino]carbonyl]butyl]-alpha-(phenylmethyl)-2(1H)-isoquinolinepentanamide]
- IC50 (HIV-1 protease; [2]): 738 nM

Compound: CC[C@H](C)[C@H](NC(=O)[C@H](Cc1ccccc1)CC(O)CN1C[C@H]2CCCC[C@H]2C[C@H]1C(=O)NC(C)(C)C)C(=O)OC (stereo partly drawn) [Example 32, [3S-[2[2S*,4R*(and S*)],3alpha,4abeta,8abeta]-N-[5-[3-[[(1,1-Dimethylethyl)amino]carbonyl]octahydro-2(1H)-isoquinolinyl]-4-hydroxy-1-oxo-2-(phenylmethyl)pentyl]-L-isoleucinemethyl ester]
- IC50 (HIV-1 protease; [2]): 874 nM

Compound: CC(C)(C)NC(=O)[C@@H]1C[C@@H]2CCCC[C@@H]2CN1CC(O)(CO)C[C@@H](Cc1ccccc1)C(=O)N[C@H]1CCCC[C@@H]1NC(=O)c1cc2ccccc2cn1 (stereo partly shown) [Example 40]
- inhibition at 0.01 µg/mL [1]: 0%
- inhibition at 0.039 µg/mL [1]: 0%
- inhibition at 0.156 µg/mL [1]: 1.88%
- inhibition at 0.625 µg/mL [1]: 0.91%
- inhibition at 2.5 µg/mL [1]: 13.8%
- IC50 (HIV-1 protease; [2]): 55.1 nM

Compound: CC[C@H](C)[C@H](NC(=O)[C@H](Cc1ccccc1)CC(O)(CO)CN1C[C@H]2CCCC[C@H]2C[C@H]1C(=O)NC(C)(C)C)C(=O)NCc1nc2ccccc2[nH]1 (stereo partly drawn) [Example 21, [3S-[2[alphaS*(1R*,2R*),gammaR*(and S*),3alpha,4abeta,8abeta]]-N[1-[[(1H-Benzimidazol-2-ylmethyl)amino]carbonyl]-2-methylbutyl]-3-[[(1,1-dimethylethyl)amino]carbonyl]decahydro-gamma-hydroxy-gamma-(hydroxymethyl)alpha-(phenylmethyl)-2-isoquinolinepentanamide]
- inhibition at 0.01 µg/mL [1]: 0%
- inhibition at 0.039 µg/mL [1]: 8.1%
- inhibition at 0.156 µg/mL [1]: 33%
- inhibition at 0.625 µg/mL [1]: 103%
- inhibition at 2.5 µg/mL [1]: 102%
- IC50 (HIV-1 protease; [2]): 69.7 nM

Compound: CC(C)(C)NC(=O)[C@@H]1C[C@@H]2CCCC[C@@H]2CN1CC(O)C[C@@H](Cc1ccccc1)C(=O)N[C@H]1CCCC[C@@H]1NC(=O)c1ccc2ccccc2n1 (stereo partly drawn) [Example 37, [3S-[2[2S*(2R*,1R*)],3alpha,4abeta,8abeta]]-N-2-[[5-[3-[[(1,1-dimethylethyl)amino]carbonyl]octahydro-2(1H )-isoquinolinyl]-4-hydroxy-1-oxo-2-(phenylmethyl)pentyl]amino]cyclohexyl]-2-quinolinecarboxamide]
- inhibition at 0.01 µg/mL [1]: 0.95%
- inhibition at 0.039 µg/mL [1]: 0%
- inhibition at 0.156 µg/mL [1]: 0%
- inhibition at 0.625 µg/mL [1]: 4.37%
- inhibition at 2.5 µg/mL [1]: 49.1%
- IC50 (HIV-1 protease): 71.8 nM

Compound: CC(C)(C)NC(=O)[C@@H]1C[C@@H]2CCCC[C@@H]2CN1CC(O)C[C@@H](Cc1ccccc1)C(=O)N[C@H]1CCCC[C@@H]1NC(=O)c1cc2ccccc2cn1 (stereo partly drawn) [Example 42, [3S-[2[alphaS*[1R*,1(2R*)]],3alpha,4abeta,8abeta]]-3-[[(1,1-Dimethylethyl)amino]carbonyl)octahydro-gamma-hydroxy-N-[2-[(3-isoquinolinylcarbonyl)amino]cyclohexyl]-alpha-(phenylmethyl)-2-(1H)-isoquinolinepentanamide]
- inhibition at 0.01 µg/mL [1]: 4.33%
- inhibition at 0.039 µg/mL [1]: 0%
- inhibition at 0.156 µg/mL [1]: 4.21%
- inhibition at 0.625 µg/mL [1]: 12.9%
- inhibition at 2.5 µg/mL [1]: 86.8%
- IC50 (HIV-1 protease; [2]): 79 nM

Compound: CC(C)(C)NC(=O)[C@@H]1C[C@@H]2CCCC[C@@H]2CN1CC(O)(CO)C[C@@H](Cc1ccccc1)C(=O)N[C@H]1CCCC[C@@H]1NC(=O)c1ccc2ccccc2n1 (stereo partly shown) [Example 35]
- inhibition at 0.01 µg/mL [1]: 0%
- inhibition at 0.039 µg/mL [1]: 0%
- inhibition at 0.156 µg/mL [1]: 1.97%
- inhibition at 0.625 µg/mL [1]: 0%
- inhibition at 2.5 µg/mL [1]: 0%
- IC50 (HIV-1 protease; [2]): 68.9 nM

The next lines start with results.

- IC50 (HIV-1 protease): 128 nM
Compound: CC[C@H](C)[C@H](NC(=O)[C@H](Cc1ccccc1)CC(O)CN1C[C@H]2CCCC[C@H]2C[C@H]1C(=O)NC(C)(C)C)C(=O)N[C@@H](C)c1nc2ccccc2[nH]1 (stereo partly drawn) [Example 51, [3S-[2alphaS*[1R*,1(R*),2R*]],3alpha,4abeta,8abeta]]-N-[1-[[[1H-benzimidazol-2-yl)ethyl]amino]carbonyl]-2-methylbutyl]-3-[[(1,1-dimethylethyl)amino]carbonyl]octahydro-gamma-hydroxy-alpha-phenylmethyl)-2(1H)-isoquinolinepentanamide]
- inhibition at 0.01 µg/mL [1]: 1.67%
- inhibition at 0.039 µg/mL [1]: 2.24%
- inhibition at 0.156 µg/mL [1]: 10.4%
- inhibition at 0.625 µg/mL [1]: 55.1%
- inhibition at 2.5 µg/mL [1]: 72.9%

- IC50 (HIV-1 protease; [2]): 72.8 nM
Compound: CC[C@H](C)[C@H](NC(=O)[C@H](Cc1ccccc1)CC(O)CN1C[C@H]2CCCC[C@H]2C[C@H]1C(=O)NC(C)(C)C)C(=O)NCc1nc2ccccc2[nH]1 (stereo partly drawn) [Example 23, [3S-[2[alphaS*(1R*,2R*),gammaR* (and S*)],3alpha,4abeta,8abeta]]-N-[1-[[(1H-Benzimidazol-2-ylmethyl)amino]carbonyl]-2-methylbutyl]-3-[[(1,1-dimethylethyl)amino]carbonyl]decahydro-gamma-hydroxy-alpha-(phenylmethyl)-2-isoquinolinepentanamide]
- inhibition at 0.01 µg/mL [1]: 13%
- inhibition at 0.039 µg/mL [1]: 78.7%
- inhibition at 0.156 µg/mL [1]: 93.6%
- inhibition at 0.625 µg/mL [1]: 95.8%
- inhibition at 2.5 µg/mL [1]: 98.5%

- IC50 (HIV-1 protease; [2]): 154 nM
Compound: CC[C@H](C)[C@H](NC(=O)[C@H](Cc1ccccc1)CC(O)CN1C[C@H]2CCCC[C@H]2C[C@H]1C(=O)NC(C)(C)C)C(=O)NCc1ccccn1 (stereo partly drawn) [Example 28, [3S-[2[gammaR*(and S*),gamma[alphaS*[1R,1(R*)]]]],3alpha,4abeta,8abeta]]-3-[[(1,1-Dimethylethyl)amino]carbonyl]octahydro-gamma-hydroxy-N-[2-methyl-1-[[(2-pyridinylmethyl)amino]carbonyl]butyl]-alpha-(phenylmethyl)-2(1H)-isoqinolinepentanamide]

- IC50 (HIV-1 protease; [2]): 72.8 nM
Compound: CC[C@H](C)[C@H](NC(=O)[C@H](Cc1ccccc1)CC(O)CN1C[C@H]2CCCC[C@H]2C[C@H]1C(=O)NC(C)(C)C)C(=O)NCc1nc2ccccc2[nH]1 (single isomer, unassigned) [Example 24A, [3S-[2[alphaS*(1R*,2R*),gammaR*(or S*),3alpha,4abeta,8abeta]]-N-[1-[[(1H-Benzimidazol-2-ylmethyl)amino]carbonyl]-2-methylbutyl]-3-[(1,1-dimethylethyl)amino]carbonyl]decahydro-gamma-hydroxy-alpha-(pentylmethyl)-2-isoquinolinepentanamide]
- inhibition at 0.01 µg/mL [1]: 10.7%
- inhibition at 0.039 µg/mL [1]: 63.3%
- inhibition at 0.156 µg/mL [1]: 100%
- inhibition at 0.625 µg/mL [1]: 103%
- inhibition at 2.5 µg/mL [1]: 96%

— patent publication US5430150A, “Retroviral protease inhibitors” (American Cyanamid Company, priority 1992, dated 1995)
